Experimental data published in US20220089598A1, “INHIBITORS OF HUMAN IMMUNODEFICIENCY VIRUS REPLICATION” (VIIV HEALTHCARE UK (No. 5) LIMITED, priority 2018, published 2022).

Experiments:
[1] = system: recombinant NL4-3 virus (Renilla luciferase) in MT-2 cells; experiment: HIV cell culture assay (antiviral activity, luciferase readout); format: cell-based; conditions: Renilla, NL43
Description: HIV cell culture assay—MT-2 cells, 293T cells and the proviral DNA clone of NL4-3 virus were obtained from the NIH AIDS Research and Reference Reagent Program. MT-2 cells were propagated in RPMI 1640 media supplemented with 10% heat inactivated fetal bovine serum (FBS), 100 μg/ml penicillin G and up to 100 units/mL streptomycin. The 293T cells were propagated in DMEM media supplemented with 10% heat inactivated FBS, 100 μg/mL penicillin G and 100 μg/mL streptomycin. A recombinant NL4-3 proviral clone, in which a section of the nef gene was replaced with the Renilla luciferase gene, was used to make the reference virus used in these studies. The recombinant virus was prepared through transfection of the recombinant NL4-3 proviral clone into 293T cells using Transit-293 Transfection Reagent from Mirus Bio LLC (Madison, Wis.). Supernatent was harvested after 2-3 days and the amount of virus present was titered in MT-2 cells using luciferase enzyme activity as a marker by measuring luciferase enzyme activity. Luciferase was quantitated using the EnduRen Live Cell Substrate from Promega (Madison, Wis.). Antiviral activities of compounds toward the recombinant virus were quantified by measuring luciferase activity in MT-2 cells infected for 4-5 days with the recombinant virus in the presence of serial dilutions of the compound.
The 50% effective concentration (EC50) was calculated by using the exponential form of the median effect equation where (Fa)=1/[1+(ED50/drug conc.)m] (Johnson V A, Byington R T. Infectivity Assay. In Techniques in HIV Research. ed. Aldovini A, Walker B D. 71-76. New York: Stockton Press. 1990).

[2] = Compound cytotoxicity, XTT-based colorimetric assay; format: cell-based; conditions: human; uninfected MT2 cells, day 4, XTT assay
Description: Compound cytotoxicity and the corresponding CC50 values were determined using the same protocol as described in the antiviral assay except that uninfected cells were used. Cytotoxicity was assessed on day 4 in uninfected MT2 cells by using a XTT (2,3-bis[2-Methoxy-4-nitro-5-sulfophenyl]-2H-tetrazolium-5-carboxyanilide inner salt)-based colorimetric assay (Sigma-Aldrich, St Louis, Mo.).

| Compound | EC50 [1] [nM] | CC50 at 4 day [2] [nM] |
| --- | --- | --- |
| Cn1nc(NS(C)(=O)=O)c2c(Cl)ccc(-n3c([C@H](Cc4cc(F)cc(F)c4)NC(=O)Cn4nc(C(F)F)c5c4C(F)(F)[C@@H]4C[C@H]54)nc4cc(-c5ccccc5F)cnc4c3=O)c21 (atropisomer, axis not shown; (P)) [Example 38, N—((S)-1-((3P)-3-(4-chloro-1-methyl-3-(methylsulfonamido)-1H-indazol-7-yl)-7-(2-fluorophenyl)-4-oxo-3,4-dihydropyrido[3,2-d]pyrimidin-2-yl)-2-(3,5-difluorophenyl)ethyl)-2-((3bS,4aR)-3-(difluoromethyl)-5,5-difluoro-3b,4,4a,5-tetrahydro-1H-cyclopropa[3,4]cyclopenta[1,2-c]pyrazol-1-yl)acetamide] | 1.9 | > 500 |
| Cn1nc(NS(C)(=O)=O)c2c(Cl)ccc(-n3c([C@H](Cc4cc(F)cc(F)c4)NC(=O)Cn4nc(C(F)(F)F)c5c4C(F)(F)[C@@H]4C[C@H]54)nc4nc(-c5ccc(F)cc5F)ccc4c3=O)c21 (atropisomer, axis not shown; (P)) [Example 24, N—((S)-1-((3P)-3-(4-chloro-1-methyl-3-(methylsulfonamido)-1H-indazol-7-yl)-7-(2,4-difluorophenyl)-4-oxo-3,4-dihydropyrido[2,3-d]pyrimidin-2-yl)-2-(3,5-difluorophenyl)ethyl)-2-((3bS,4aR)-5,5-difluoro-3-(trifluoromethyl)-3b,4,4a,5-tetrahydro-1H-cyclopropa[3,4]cyclopenta[1,2-c]pyrazol-1-yl)acetamide] | 0.067 | > 500 |
| COc1nc2nc([C@H](Cc3cc(F)cc(F)c3)NC(=O)Cn3nc(C(F)(F)F)c4c3C(F)(F)[C@@H]3C[C@H]43)n(-c3ccc(Cl)c4c(NS(C)(=O)=O)nn(C)c34)c(=O)c2cc1-c1ccccc1F (atropisomer, axis not shown; (P)) [Example 31, N—((S)-1-((3P)-3-(4-chloro-1-methyl-3-(methylsulfonamido)-1H-indazol-7-yl)-6-(2-fluorophenyl)-7-methoxy-4-oxo-3,4-dihydropyrido[2,3-d]pyrimidin-2-yl)-2-(3,5-difluorophenyl)ethyl)-2-((3bS,4aR)-5,5-difluoro-3-(trifluoromethyl)-3b,4,4a,5-tetrahydro-1H-cyclopropa[3,4]cyclopenta[1,2-c]pyrazol-1-yl)acetamide] | 0.16 | > 500 |
| Cn1nc(NS(C)(=O)=O)c2c(Cl)ccc(-n3c([C@H](Cc4cc(F)cc(F)c4)NC(=O)Cn4nc(C(F)F)c5c4C(F)(F)[C@@H]4C[C@H]54)nc4nc(-c5ccc(F)cc5CO)ccc4c3=O)c21 (atropisomer, axis not shown; (P)) [Example 16, N—((S)-1-((3P)-3-(4-chloro-1-methyl-3-(methylsulfonamido)-1H-indazol-7-yl)-7-(4-fluoro-2-(hydroxymethyl)phenyl)-4-oxo-3,4-dihydropyrido[2,3-d]pyrimidin-2-yl)-2-(3,5-difluorophenyl)ethyl)-2-((3bS,4aR)-3-(difluoromethyl)-5,5-difluoro-3b,4,4a,5-tetrahydro-1H-cyclopropa[3,4]cyclopenta[1,2-c]pyrazol-1-yl)acetamide] | 0.056 | > 500 |
| Cn1nc(NS(C)(=O)=O)c2c(Cl)ccc(-n3c([C@H](Cc4cc(F)cc(F)c4)NC(=O)Cn4ccc(C5CC5)n4)nc4nc(-c5ccccc5F)ccc4c3=O)c21 (atropisomer, axis not shown; (P)) [Example 34, (S)—N-(1-((3P)-3-(4-chloro-1-methyl-3-(methylsulfonamido)-1H-indazol-7-yl)-7-(2-fluorophenyl)-4-oxo-3,4-dihydropyrido[2,3-d]pyrimidin-2-yl)-2-(3,5-difluorophenyl)ethyl)-2-(3-cyclopropyl-1H-pyrazol-1-yl)acetamide] | 0.089 | > 500 |
| Cn1nc(NS(C)(=O)=O)c2c(Cl)ccc(-n3c([C@H](Cc4cc(F)cc(F)c4)NC(=O)Cn4nc(C(F)F)c5c4C(F)(F)[C@@H]4C[C@H]54)nc4nc(-c5ccc(C(F)(F)F)cc5)ccc4c3=O)c21 (atropisomer, axis not shown; (P)) [Example 14, N—((S)-1-((3P)-3-(4-chloro-1-methyl-3-(methylsulfonamido)-1H-indazol-7-yl)-4-oxo-7-(4-(trifluoromethyl)phenyl)-3,4-dihydropyrido[2,3-d]pyrimidin-2-yl)-2-(3,5-difluorophenyl)ethyl)-2-((3bS,4aR)-3-(difluoromethyl)-5,5-difluoro-3b,4,4a,5-tetrahydro-1H-cyclopropa[3,4]cyclopenta[1,2-c]pyrazol-1-yl)acetamide] | 0.084 | > 100 |
| Cn1nc(NS(C)(=O)=O)c2c(Cl)ccc(-n3c([C@H](Cc4cc(F)cc(F)c4)NC(=O)Cn4nc(C(F)F)c5c4C(F)(F)[C@@H]4C[C@H]54)nc4nc(-c5cc(Cl)c(F)cc5F)ccc4c3=O)c21 (atropisomer, axis not shown; (P)) [Example 6, N—((S)-1-((3P)-3-(4-chloro-1-methyl-3-(methylsulfonamido)-1H-indazol-7-yl)-7-(5-chloro-2,4-difluorophenyl)-4-oxo-3,4-dihydropyrido[2,3-d]pyrimidin-2-yl)-2-(3,5-difluorophenyl)ethyl)-2-((3bS,4aR)-3-(difluoromethyl)-5,5-difluoro-3b,4,4a,5-tetrahydro-1H-cyclopropa[3,4]cyclopenta[1,2-c]pyrazol-1-yl)acetamide] | 0.192 | > 100 |
| O=C(Cn1nc(C(F)(F)F)c2c1C(F)(F)[C@@H]1C[C@H]21)N[C@@H](Cc1cc(F)cc(F)c1)c1nc2nc(-c3ccccc3F)ccc2c(=O)n1-c1ccc(Cl)c2c(NS(=O)(=O)C3CC3)nn(CC(F)F)c12 (atropisomer, axis not shown; (P)) [Example 7, N—((S)-1-((3P)-3-(4-chloro-3-(cyclopropanesulfonamido)-1-(2,2-difluoroethyl)-1H-indazol-7-yl)-7-(2-fluorophenyl)-4-oxo-3,4-dihydropyrido[2,3-d]pyrimidin-2-yl)-2-(3,5-difluorophenyl)ethyl)-2-((3bS,4aR)-5,5-difluoro-3-(trifluoromethyl)-3b,4,4a,5-tetrahydro-1H-cyclopropa[3,4]cyclopenta[1,2-c]pyrazol-1-yl)acetamide] | 0.056 | > 100 |
| Cn1nc(NS(C)(=O)=O)c2c(Cl)ccc(-n3c([C@H](Cc4cc(F)cc(F)c4)NC(=O)Cn4nc(C(F)F)c5c4C(F)(F)[C@@H]4C[C@H]54)nc4nc(-c5ccc(F)c(Cl)c5)ccc4c3=O)c21 (atropisomer, axis not shown; (P)) [Example 29, N—((S)-1-((3P)-3-(4-chloro-1-methyl-3-(methylsulfonamido)-1H-indazol-7-yl)-7-(3-chloro-4-fluorophenyl)-4-oxo-3,4-dihydropyrido[2,3-d]pyrimidin-2-yl)-2-(3,5-difluorophenyl)ethyl)-2-((3bS,4aR)-3-(difluoromethyl)-5,5-difluoro-3b,4,4a,5-tetrahydro-1H-cyclopropa[3,4]cyclopenta[1,2-c]pyrazol-1-yl)acetamide] | 0.12 | > 100 |
| Cn1nc(NS(C)(=O)=O)c2c(Cl)ccc(-n3c([C@H](Cc4cc(F)cc(F)c4)NC(=O)Cn4nc(C(F)F)c5c4C(F)(F)[C@@H]4C[C@H]54)nc4nc(-c5ccc(F)cc5)ccc4c3=O)c21 (atropisomer, axis not shown; (P)) [Example 18, N—((S)-1-((3P)-3-(4-chloro-1-methyl-3-(methylsulfonamido)-1H-indazol-7-yl)-7-(4-fluorophenyl)-4-oxo-3,4-dihydropyrido[2,3-d]pyrimidin-2-yl)-2-(3,5-difluorophenyl)ethyl)-2-((3bS,4aR)-3-(difluoromethyl)-5,5-difluoro-3b,4,4a,5-tetrahydro-1H-cyclopropa[3,4]cyclopenta[1,2-c]pyrazol-1-yl)acetamide] | 0.036 | > 100 |
| CS(=O)(=O)Nc1nn(CC(F)(F)F)c2c(-n3c([C@H](Cc4cc(F)cc(F)c4)NC(=O)Cn4ccc(C5CC5)n4)nc4nc(-c5ccccc5F)ccc4c3=O)ccc(Cl)c12 (atropisomer, axis not shown; (P)) [Example 36, (S)—N-(1-((3P)-3-(4-chloro-3-(methylsulfonamido)-1-(2,2,2-trifluoroethyl)-1H-indazol-7-yl)-7-(2-fluorophenyl)-4-oxo-3,4-dihydropyrido[2,3-d]pyrimidin-2-yl)-2-(3,5-difluorophenyl)ethyl)-2-(3-cyclopropyl-1H-pyrazol-1-yl)acetamide] | 0.16 | > 500 |
